ChEMBL document CHEMBL5226308, “Amide-Amine Replacement in Indole-2-carboxamides Yields Potent Mycobactericidal Agents with Improved Water Solubility” (ACS Med Chem Lett, 2021)
≈ marks a conversion by molar mass, not a printed value. Calls of active or inactive are those of the source. The rule behind the calls is not given here.

Experiments:
[1] = tested on: Mycobacterium tuberculosis; assay: Antimycobacterial activity against Mycobacterium tuberculosis H37Rv ATCC 27294 assessed as inhibition of bacterial growth incubated for 7 days by broth dilution method; assay type: functional; conditions: H37Rv ATCC 27294, 168 h, time 7 day
[2] = Aqueous solubility of the compound in aqueous buffer at 100 uM incubated for 24 hrs under agitation condition by UV-Vis spectrophotometric analysis; assay type: physicochemical
[3] = tested on: Mycolicibacterium smegmatis; assay: Disruption of proton motive force in Mycobacterium smegmatis spheroplasts assessed as disruption of proton gradient by measuring acidification of intracellular spaces within spheroplasts at 2XMIC90 measured after 30 mins by BCECF-AM dye based fluorescence analysis; assay type: functional, organism-based
[4] = Effective permeability coefficient of the compound at 500 uM incubated for 18 hrs under agitation condition by PAMPA assay; assay type: ADME; conditions: for Papp at 18 h, 500 µM: PAMPA, read-out: Peff
[5] = tested on: Mycobacterium tuberculosis; assay: Myco-bactericidal activity against Mycobacterium tuberculosis H37Rv ATCC 27294 assessed as inhibition of bacterial colony formation incubated for 7 days by agar plate method; assay type: functional; conditions: H37Rv ATCC 27294, 168 h, time 7 day, read-out: MBC99.9
[6] = Cytotoxicity against African green monkey Vero E6 cells assessed as reduction in cell viability incubated for 48 hrs by MTS assay; assay type: toxicity, cell-based, Chlorocebus sabaeus, Vero C1008
[7] = Selectivity index, ratio of IC50 for cytotoxicity against African green monkey Vero E6 cells to MIC50 for antimycobacterial activity against Mycobacterium tuberculosis H37Rv ATCC 27294; assay type: toxicity, cell-based, Vero C1008; conditions: read-out: Selectivity Index
[8] = Selectivity index, ratio of IC50 for cytotoxicity against African green monkey Vero E6 cells to MIC50 for antimycobacterial activity against Mycobacterium bovis BCG ATCC 35734; assay type: toxicity, cell-based, Vero C1008; conditions: read-out: Selectivity Index
[9] = Half life in rat liver microsomes at 200 uM incubated for 5 mins followed by NADPH addition and measured for 45 mins by LC-MS/MS analysis; assay type: ADME, Microsome; conditions: time 50 min
[10] = Ratio of MIC90 for antimycobacterial activity against Mycobacterium bovis BCG B16-1 harboring mmpL3 C1932G/F644L mutant to MIC90 for antimycobacterial activity against wild type Mycobacterium bovis BCG ATCC 35734; assay type: functional
[11] = Ratio of MIC90 for antimycobacterial activity against Mycobacterium bovis BCG B16-2 harboring mmpL3 C1932A/F644L mutant to MIC90 for antimycobacterial activity against wild type Mycobacterium bovis BCG ATCC 35734; assay type: functional
[12] = Ratio of MIC90 for antimycobacterial activity against Mycobacterium bovis BCG B33-1 harboring mmpL3 C1932G/F644L mutant to MIC90 for antimycobacterial activity against wild type Mycobacterium bovis BCG ATCC 35734; assay type: functional
[13] = Ratio of MIC90 for antimycobacterial activity against Mycobacterium bovis BCG B33-2 harboring mmpL3 C765G/F255L mutant to MIC90 for antimycobacterial activity against wild type Mycobacterium bovis BCG ATCC 35734; assay type: functional
[14] = Ratio of MIC90 for antimycobacterial activity against Mycobacterium bovis BCG B47-1 harboring mmpL3 C1932G/F644L mutant to MIC90 for antimycobacterial activity against wild type Mycobacterium bovis BCG ATCC 35734; assay type: functional
[15] = Ratio of MIC90 for antimycobacterial activity against Mycobacterium bovis BCG B47-2 harboring mmpL3 G2041A/V681I mutant to MIC90 for antimycobacterial activity against wild type Mycobacterium bovis BCG ATCC 35734; assay type: functional
[16] = Ratio of MIC90 for antimycobacterial activity against Mycobacterium bovis BCG B47-3 harboring mmpL3 T1930C/F644L mutant to MIC90 for antimycobacterial activity against wild type Mycobacterium bovis BCG ATCC 35734; assay type: functional
[17] = Ratio of MIC90 for antimycobacterial activity against Mycobacterium bovis BCG B47-4 harboring mmpL3 C1932G/F644L mutant to MIC90 for antimycobacterial activity against wild type Mycobacterium bovis BCG ATCC 35734; assay type: functional
[18] = tested on: Mycolicibacterium smegmatis; assay: Disruption of proton motive force in Mycobacterium smegmatis spheroplasts assessed as disruption of proton gradient by measuring acidification of intracellular spaces within spheroplasts at 2 to 5 uM measured after 30 mins by BCECF-AM dye based fluorescence analysis; assay type: functional, organism-based; conditions: dose 2-5 µM

For `C[C@@H]1[C@H]2C[C@@H](C[C@H]1NC(=O)c1cc3c(F)cc(F)cc3[nH]1)C2(C)C`, the MIC90 [1] was 0.012 µM (≈ 0.00399 µg/mL).
`CC1(C)CCC(NC(=O)c2cc3c(F)cc(F)cc3[nH]2)CC1` gave an MIC50 [1] of 0.023 µM (≈ 0.00705 µg/mL).
In the case of `O=C(NC1CCCCCCC1)c1cc2ccccc2s1`, the solubility at 24 h, 100 µM [2] is reported as 3.3 µM (≈ 0.949 µg/mL) and the Activity [3] is reported as “inactive”.
With `Cc1cc(C)c2cc(CNC3CCCCCCC3)[nH]c2c1` the solubility at 24 h, 100 µM [2] was 70.1 µM (≈ 19.9 µg/mL), the Papp at 18 h, 500 µM [4] was 18.4 ×10⁻⁶ cm/s and the MIC90 [1] was 0.31 µM (≈ 0.0882 µg/mL).
For `c1ccc2[se]c(CNC3CCCCCCC3)cc2c1`, the solubility at 24 h, 100 µM [2] was 77.8 µM (≈ 24.9 µg/mL) and the Activity [3] was “inactive”.
`CC1(C)CCC(NC(=O)c2cc3c(Cl)cc(Cl)cc3[nH]2)CC1` showed an MIC50 [1] of 0.015 µM (≈ 0.00509 µg/mL).
For `O=C(NC1C2CC3CC(C2)CC1C3)c1cc2cc(Cl)ccc2[nH]1` (stereo not given), the MIC90 [1] was 0.47 µM (≈ 0.155 µg/mL).
`O=C(NC1CCCCCCC1)c1cc2ccc(Br)cc2[nH]1` gave a solubility at 24 h, 100 µM [2] of 1.6 µM (≈ 0.559 µg/mL) and a Papp at 18 h, 500 µM [4] of 8.1 ×10⁻⁶ cm/s.
Compound `NNC(=O)c1ccncc1` [ISONIAZID] has an MIC50 [1] of 1.8 µM (≈ 0.247 µg/mL), an MIC90 [1] of 3.8 µM (≈ 0.521 µg/mL) and an MBC [5] of 3.2 µM (≈ 0.439 µg/mL).
With `O=C(NC1CCCCCCC1)c1cc2ccc(C(F)(F)F)cc2[nH]1` the solubility at 24 h, 100 µM [2] was 2.2 µM (≈ 0.744 µg/mL), the Papp at 18 h, 500 µM [4] was 0.34 ×10⁻⁶ cm/s and the MIC50 [1] was 0.02 µM (≈ 0.00677 µg/mL). It also gave an MIC90 [1] of 0.04 µM (≈ 0.0135 µg/mL), an MBC [5] of 0.08 µM (≈ 0.0271 µg/mL) and an IC50 at 48 h [6] greater than 100 µM. The selectivity ratio [7] was greater than 5000, the selectivity ratio [8] was greater than 5000 and the half-life at 200 µM [9] was 25.6 min. It also gave a Ratio [10] of 5, a Ratio [11] of 5 and a Ratio [12] of 5. The Ratio [13] was 5, the Ratio [14] was 5 and the Ratio [15] was 5. For the same compound, the Ratio [16] was 5, the Ratio [17] was 5 and the Activity [3] was “inactive”.
With `O=C(NC1CCC2(CCCCC2)CC1)c1cc2c(F)cc(F)cc2[nH]1` the MIC90 [1] was 0.003 µM (≈ 0.00104 µg/mL).
In the case of `c1ccc2[nH]c(CNC3CCCCCCC3)cc2c1`, the solubility at 24 h, 100 µM [2] is reported as 99.7 µM (≈ 25.6 µg/mL).
`c1ccc2sc(CNC3CCCCCCC3)cc2c1` showed a solubility at 24 h, 100 µM [2] of 73.5 µM (≈ 20.1 µg/mL), a Ratio [10] of 5 and a Ratio [11] of 5. It also gave a Ratio [12] of 5, a Ratio [13] of 5 and a Ratio [14] of 5. The Ratio [15] was 5, the Ratio [16] was 5 and the Ratio [17] was 5. The Activity [3] was “inactive”.
In the case of `N#CC(C#N)=NNc1cccc(Cl)c1`, the Activity [18] is reported as “Active”.
For `Brc1ccc2cc(CNC3CCCCCCC3)[nH]c2c1`, the solubility at 24 h, 100 µM [2] was 35.4 µM (≈ 11.9 µg/mL) and the Papp at 18 h, 500 µM [4] was 13.4 ×10⁻⁶ cm/s.
With `O=C(NC1CCCCCCC1)c1cc2ccccc2[se]1` the solubility at 24 h, 100 µM [2] was 3.7 µM (≈ 1.24 µg/mL) and the Activity [3] was “inactive”.
`O=C(NC1CCCCCCC1)c1cc2ccccc2[nH]1` showed a solubility at 24 h, 100 µM [2] of 2.4 µM (≈ 0.649 µg/mL).
For `CC(C)NCC(O)COc1cccc2ccccc12` (stereo not given) [PROPRANOLOL], the Papp at 18 h, 500 µM [4] was 11.9 ×10⁻⁶ cm/s.
For `Cc1cc(C)c2cc(C(=O)NC3CCCCCCC3)[nH]c2c1`, the solubility at 24 h, 100 µM [2] was 5.7 µM (≈ 1.7 µg/mL), the Peff ([4]; pampa, 18 h, 500 µM) was 14 10^-6 cm/s and the MIC90 [1] was 0.013 µM (≈ 0.00388 µg/mL).
For `FC(F)(F)c1ccc2cc(CNC3CCCCCCC3)[nH]c2c1`, the solubility at 24 h, 100 µM [2] was 31 µM (≈ 10.1 µg/mL), the Papp at 18 h, 500 µM [4] was 13.4 ×10⁻⁶ cm/s and the MIC50 [1] was 0.05 µM (≈ 0.0162 µg/mL). For the same compound, the MIC90 [1] was 0.13 µM (≈ 0.0422 µg/mL), the MBC [5] was 0.63 µM (≈ 0.204 µg/mL) and the IC50 at 48 h [6] was 22 µM. The selectivity ratio [7] was 366, the selectivity ratio [8] was 550 and the half-life at 200 µM [9] was 8.2 min. The Ratio [10] was 5, the Ratio [11] was 5 and the Ratio [12] was 5. The Ratio [13] was 5, the Ratio [14] was 5 and the Ratio [15] was 5. For the same compound, the Ratio [16] was 5, the Ratio [17] was 5 and the Activity [3] was “inactive”.
With `Cc1c(CN2CCN(C)CC2)cc(-c2ccc(Cl)cc2)n1-c1ccc(Cl)cc1` the Activity [3] was “inactive”.
